Assay results taken from ChEMBL document CHEMBL1142688, “Development and preliminary optimization of indole-N-acetamide inhibitors of hepatitis C virus NS5B polymerase” (J Med Chem, 2005).

Key:
[1] = target: T1, RNA-directed RNA polymerase (Hepacivirus hominis, UniProt O39930); assay: Inhibitory activity against RNA dependent RNA polymerase nonstructural protein 5B in hepatitis C virus; n=1
[2] = target: T1, RNA-directed RNA polymerase; assay: Effective concentration to inhibit the activity of RNA dependent RNA polymerase nonstructural protein 5B in hepatitis C virus; n=1
Hepatitis C virus [3] = assay: (§1) Cytotoxic concentration against hepatitis C virus; format: functional, Hepacivirus hominis
[4] = target: T1, RNA-directed RNA polymerase; assay: Inhibitory concentration against RNA dependent RNA polymerase nonstructural protein 5B of hepatitis C virus
[5] = as §1; format: functional, Hepacivirus hominis
Hepatitis C virus [6] = assay: Effective concentration to inhibit RNA replication in hepatitis C virus; format: functional, organism-based, Hepacivirus hominis
Hepacivirus hominis = assay: Concentration to inhibit hepatitis C virus replication by 85%; format: functional
[7] = Total clearance after administration of 20 mg/kg in dog; format: ADME, organism-based, Canis lupus familiaris; design: dose 20 mg/kg; conditions: in vivo
[8] = Half life after administration of 20 mg/kg in dog; format: ADME, organism-based, Canis lupus familiaris; design: dose 20 mg/kg; conditions: in vivo
[9] = target: T1, RNA-directed RNA polymerase; assay: Inhibitory concentration against NS5B polymerase of Hepatitis C virus; n=1

T1 sequence (O39930 whole entry): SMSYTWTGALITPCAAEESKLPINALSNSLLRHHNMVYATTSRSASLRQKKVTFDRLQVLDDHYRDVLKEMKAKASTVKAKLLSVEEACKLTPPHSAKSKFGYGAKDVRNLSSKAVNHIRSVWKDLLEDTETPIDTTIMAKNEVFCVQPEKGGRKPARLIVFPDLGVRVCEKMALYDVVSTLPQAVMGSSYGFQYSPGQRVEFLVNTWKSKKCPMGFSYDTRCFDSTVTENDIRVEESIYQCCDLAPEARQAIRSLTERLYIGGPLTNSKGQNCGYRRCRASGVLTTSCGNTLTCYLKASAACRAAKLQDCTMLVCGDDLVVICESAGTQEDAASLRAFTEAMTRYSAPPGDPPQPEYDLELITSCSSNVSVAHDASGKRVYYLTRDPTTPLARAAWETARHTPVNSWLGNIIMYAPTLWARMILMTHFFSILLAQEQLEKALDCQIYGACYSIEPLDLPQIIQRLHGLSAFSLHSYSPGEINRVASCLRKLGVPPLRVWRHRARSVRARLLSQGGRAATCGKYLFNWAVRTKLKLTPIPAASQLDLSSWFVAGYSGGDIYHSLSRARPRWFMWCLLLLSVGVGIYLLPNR

SMILES | IC50 [1] [nM] | CC50 [5] [nM] | also measured
O=C(O)c1ccc2c(C3CCCCC3)c(-c3ccc(O)cc3)[nH]c2c1 | – | – | IC50 [4]: 4.8 nM
O=C(O)c1ccc2c(c1)nc(-c1ccc(O)cc1)n2C1CCCCC1 | – | – | IC50 [4]: 3 nM
O=C(O)c1ccc2c(c1)nc(-c1ccc(OCc3cc(C(=O)N4CCC(O)CC4)ccc3-c3ccc(Cl)cc3)cc1F)n2C1CCCCC1 | – | – | EC50 (Hepatitis C virus [6]): 500 nM; IC50 [4]: < 6 nM
O=C(O)c1ccc2c(c1)cc(-c1ccc(O)cc1)n2C1CCCCC1 | – | – | IC50 [4]: 340 nM
O=C(O)c1ccc2c(C3CCCCC3)c(-c3ccccc3)n(S(=O)(=O)c3ccccc3)c2c1 | 485 | – | –
O=C(O)c1ccc2c(c1)nc(-c1ccc(O)cc1F)n2C1CCCCC1 | – | – | IC50 [4]: 1.4 nM
O=C(O)c1ccc2c(C3CCCCC3)c(-c3ccccc3)n(CCN3CCOCC3)c2c1 | 111 | – | –
CN(C)C(=O)Cn1c(-c2ccccc2Cl)c(C2CCCCC2)c2ccc(C(=O)O)cc21 | 372 | > 50000 | –
CN(C)C(=O)Cn1c(-c2ccc(Cl)cc2)c(C2CCCCC2)c2ccc(C(=O)O)cc21 | – | > 50000 | IC50 [9]: 15 nM

The next lines start with results.

IC50 [1] [nM] | SMILES | CC50 [5] [nM] | also measured
11 | Cc1ccc(-c2c(C3CCCCC3)c3ccc(C(=O)O)cc3n2CC(=O)N2CCOCC2)cc1 | – | EC50 [2]: 300 nM; CC50 (Hepatitis C virus [3]): > 50000 nM
17 | Cc1ccc(-c2c(C3CCCCC3)c3ccc(C(=O)O)cc3n2CC(=O)N(C)C)cc1 | > 50000 | –
40 | CN(C)C(=O)Cn1c(-c2cccc(Cl)c2)c(C2CCCCC2)c2ccc(C(=O)O)cc21 | > 50000 | –
45 | CS(=O)(=O)NC(=O)Cn1c(-c2ccccc2)c(C2CCCCC2)c2ccc(C(=O)O)cc21 | – | –
37 | O=C(O)c1ccc2c(C3CCCCC3)c(-c3ccccc3)n(Cc3ccccc3)c2c1 | – | –
26 | O=C(O)c1ccc2c(C3CCCCC3)c(-c3ccccc3)n(CC(=O)N3CCOCC3)c2c1 | > 50000 | –
18 | COc1ccc(-c2c(C3CCCCC3)c3ccc(C(=O)O)cc3n2CC(=O)N(C)C)cc1 | > 50000 | –
18 | CN(C)C(=O)Cn1c(-c2cccc(F)c2)c(C2CCCCC2)c2ccc(C(=O)O)cc21 | > 50000 | –
6 | CN(C)C(=O)Cn1c(-c2ccc(OCc3ccccc3)cc2)c(C2CCCCC2)c2ccc(C(=O)O)cc21 | > 50000 | Concentration (Hepacivirus hominis): 0.3 µM
28 | Cn1c(-c2ccccc2)c(C2CCCCC2)c2ccc(C(=O)O)cc21 | – | –
48 | O=C(O)c1ccc2c(C3CCCCC3)c(-c3ccccc3)[nH]c2c1 | – | –
59 | CN(C)C(=O)Cn1c(-c2ccccc2)c(C2CCCCC2)c2ccc(C(=O)O)cc21 | > 50000 | clearance [7]: 3 mL/min/kg; half-life [8]: 4.8 h
